Experimental data taken from PMC11311241, “In Situ Forming, Enzyme-Responsive Peptoid-Peptide Hydrogels: An Advanced Long-Acting Injectable Drug Delivery System” (Journal of the American Chemical Society, 2024).
Where two headings read alike, the source gives them in different places.

Assays:
[1] = rats
Description: Female Sprague–Dawley rats (n = 18, aged 8–10 weeks, mean weight = 220 g) were purchased from Envigo and acclimatized for 1 week prior to experimentation.
This treatment was then administered intravenously to the tail vein (8.46 mg kg−1).15 The
extraction from blood plasma samples was possible. The peptoid-D-peptide experimental
injectable solution was formed by dissolving lyophilized UV-sterilized
mL) were obtained from the tail vein of each rat and collected in 1.5 mL preheparinized
group. Centrifugation (13,400 rpm, 10 min) was utilized to separate blood plasma
be analyzed via analytical RP-HPLC and a validated calibration curve (Figure S35) as outlined
The pharmacokinetic parameters were calculated using PKSolver 2.0.16, 17 The
parameters studied were the drug half-life (t1/2), the time to peak drug concentration (Tmax), the
maximum plasma concentration (Cmax), the area under the plasma concentration – time curve
from time zero to the last quantifiable concentration on day 35 (AUC0−35), the observed area
under the plasma concentration – time curve extrapolated from time zero to infinity (AUC0-
∞,obs) and the mean residence time (MRT) of the drug extrapolated from time zero to infinity.

HIV = conditions: cited from earlier work
alkaline phosphatase = conditions: for Strain at complete deformation (G′ and G″ intersect): strain sweep 0.1–1000%, 2.5 rad s-1, 5% w/v gels; for Strain at which the weaker network breaks / Strain at which the stronger second network or entanglement breaks: strain sweep, 5% w/v gels; for Strain at which the weaker network breaks: first deformation; for Strain at which the stronger second network or entanglement breaks: second deformation
Source text: Our drug delivery system is partly defined by drug diffusion from the hydrogel matrix, and hydrolysis of the peptoid-peptide-drug chemical linker. Reproducing supramolecular gels’ mechanical properties is difficult, especially for peptide-based systems. Experimental parameters and formulation factors are particularly important, as highlighted recently by the Adams and Draper groups.[77],[78] Subtle experimental influences e.g. handling and temperature, can lead to issues with reproducibility. […] Loss (G″) and storage (G′) moduli, critical strain (%) and oscillatory time sweeps were performed to determine the rheological changes with time and the potential for rapid in situ hydrogel depot formation upon exposure to 3.98 U mL^–1 phosphatase enzyme. […] Hydrogel formation occurs when the storage modulus (G′) is at least 1 order of magnitude greater than the loss modulus (G″).[79]
Rapid gelation is important for in situ formation of drug delivery depots to reduce the diffusion of drug(s) from the depot and potential burst release. Quick gelation after injectable administration is also important for our system in order to reduce the availability of the peptoid-peptide ester linkage with the drug to water within the subcutaneous space, providing a diffusion barrier to rapid drug cleavage by hydrolysis.[84] There are several ways in which time for gelation can be defined: a) the time at which the storage modulus (G′) and loss modulus (G″) cross indicating greater solid-like behavior; b) the time point at which G′ is greater by 1 order of magnitude than G″; and c) the time at which G′ and G″ begin to stabilize/plateau. […]
(i) peptoid-peptide sequence dissolved in PBS prior to addition of 2 U alkaline phosphatase, (ii) after 2 U alkaline phosphatase addition and formulation as outlined in Table S2.
S.4. Oscillatory rheology
Anton Paar MCR302 rheometer (Anton Paar, St Albans, UK). Gels were formulated at a 2 mL volume in 7 mL Sterilin ™ vials as previously described .8 A vane and cup geometry was used to perform both frequency and strain sweeps. Frequency sweeps were performed at 37 °C from 1 – 100 rad s-1 at a strain of 0.5%. […] sweeps were perform ed at 37°C, 2.5 rad s-1 and a strain of 0.1 – 1000%. Gel strength was measured by determining the strain at which the gels […]
Table S3. Gelation times for peptoid-L-peptide and peptoid-D-peptide hydrogels upon addition of alkaline phosphatase enzyme derived from data in Figures S25 – S27 S40 and […]
* Mean value of storage modulus (G′) and loss modulus (G″) for each peptoid-peptide derived

[2] = In vitro zidovudine release from hydrogels in PBS, with KinetDS modelling; type: physicochemical
Source text: This is typical of physically encapsulated drug release systems, which are prone to drug leakage and a high burst release.[8],[95] The release profile was monitored over the entire 28 day profile. […] Physically encapsulated systems are more applicable to acute drug delivery applications where rapid treatment, such as pain relief, is required at a high dose for a shorter time period. […] Drugs are released from the hydrogel systems in an unmodified form via simple hydrolysis of the drug-ester linkage under physiological conditions. In practice, diffusion through the peptoid-peptide hydrogel matrix and into the surrounding fluid would enable uptake into the systemic circulation. […] There appears to be a link between gelation times for peptoid-L-peptide and peptoid-D-peptide hydrogels, defined by rheological time sweeps (Figures 2f, S25c–f and Table S3). […] It is well established that rapid gel formation minimizes burst release of drug and this is especially relevant to our system,[96] whereby the presence of a gel should act as a diffusional barrier, reducing the ability of water to hydrolyze the covalent ester linkage between peptoid-peptide and drug.
KinetDS software was utilized to further understand the drug release kinetics of these novel peptoid-peptide hydrogel platforms. Various kinetic models, including zero-order, first-order, Korsmeyer–Peppas, Hixson–Crowell, Higuchi and Weibull models were applied to determine the mechanism of drug release. […] For injectable hydrogel-forming depots quantified by cumulative release, zero-order, first-order and Korsmeyer–Peppas models tend to be the most relevant for establishing the mechanism of drug release kinetics. The Higuchi model applies to drug release driven mainly by diffusion only and it is accepted that this model should not be used when hydrogel swelling may be a factor in release.[97]−[99] […] The Weibull model is associated more with nanoparticles and heterogeneous formulations; however its application in model injectable hydrogels is increasing.[101],[102] […] This indicates super case II transport (n > 0.85), whereby the drug is mainly released through the erosion of the polymer matrix and/or possibly hydrolysis of the ester-drug linkage where present.[99],[103]

NCTC 929 cells [3] = type: cell-based, murine; conditions: 24 h, fluorescence microscopy
Description: (§1) Peptoid-peptide cell cytotoxicity studies were performed using the International Standard (ISO) murine fibroblast subcutaneous connective tissue NCTC 929 (ATCC CCL 1) cell line.[108],[116] Cell cytotoxicity was assessed using three separate assays, outlined fully in Section S.7 of the Supporting Information: (i) 3-(4,5-dimethylthiazol-2-yl)-5-(3-carboxymethoxyphenyl)-2-(4-sulfophenyl)-2H-tetrazolium (MTS) colorimetric assay, (ii) lactate dehydrogenase (LDH) release and (iii) a Live/Dead assay. The cytotoxicity of each peptoid-peptide was tested after 6 (LDH, MTS), 24 (Live/Dead, MTS) and 72 h (MTS) of exposure. […]
for a further 5 min. A stop reagent (50 μL) was then added, and the UV absorbance was measured at 490 nm using a Tecan Sunrise plate reader. […]
in absorbance: i) a high LDH release control representing 100% toxicity was generated by adding 5 μL of lysis solution to non-treated cells 15 min before the addition of the test reagent; ii) each peptoid-peptide was solubilized in media at the highest tested concentration (500 μM); iii) the LDH standard was added to the media; and iv) an equal volume of the highest solubilized peptoid-peptide concentration (500 μM) and the LDH standard were added to the media. The percentage of cell cytotoxicity was calculated using Equation 3 below and is reported once again as the mean of nine measurements (three replicates, repeated three times). […]

NCTC 929 cells [4] = experiment: MTS cell viability / metabolic activity assay; type: cell-based, murine; conditions: fully solubilized, 500 μM, 6, 24 and 72 h, vs media-only control, nine replicates
Description: as §1
The MTS-based CellTiter 96 AQueous One Solution Cell Proliferation Assay (Promega, Southampton, UK) was used to analyze the metabolic activity of treated cells.3 UV absorption was measured at 490 nm using a Tecan Sunrise plate reader (Tecan UK Ltd, Reading, UK) and cell viability/percentage metabolic activity was calculated as outlined in Equation 2 below. […]
LDH release was quantified as a measure of cytotoxicity using a Cytotoxicity Detection KitPLUS assay (Sigma-Aldrich, Dorset, UK) as previously described.13 The cells were incubated, with each solubilized peptoid-peptide (20 – 500 μM) in combination with NCTC 929 cells for 6 hours, after which 100 μL of test reagent was added to each well, and incubated

[5] = plasma zidovudine, IV 8.46 mg kg−1, mean ± SEM, n = 6
[6] = 5% w/v hydrogel, PBS pH 7.4, 37 °C, n = 3
[7] = KinetDS fit of 28 day release profile
[8] = 5% w/v, 1–100 rad s-1, strain 0.5%, 37 °C, mean

## Cc1cn([C@H]2C[C@H](N=[N+]=[N-])[C@@H](CO)O2)c(=O)[nH]c1=O [zidovudine]
[1]; [5]
  MRT0-∞,obs: approximately 1.58 hour
  Tmax: 0.58 ± 0.08 h
[1]; plasma zidovudine, IV 8.46 mg kg−1, mean ± SEM, n = 6, listed as Zidovudine
  MRT0-∞,obs: 1.58 ± 0.50 h
[1]; IV control
  Time to undetectable plasma levels: ≤ 6 h
[1]; IV control, mean plasma profile (Figure 5a), n = 6
  Plasma peak zidovudine concentration: 7,500 ng mL–1
HIV; 90% maximal inhibitory concentration
  IC90 range: 30–130 ng mL–1
HIV
  four times IC90 value (pharmacokinetic benchmark for HIV protection): 120 ng mL–1

## (NPhe)4GGGGK(AZT)Y-OH [peptoid-L-peptide hydrogel, chemically conjugated drug]
Alkaline phosphatase; 37 °C
  Strain at complete deformation (G′ and G″ intersect): ~44%
Alkaline phosphatase
  Strain at which the weaker network breaks: ~4%
  Strain at which the stronger second network or entanglement breaks: ~17.5%
[2]; 5% w/v hydrogel, PBS pH 7.4, 37 °C, % of loaded drug, n = 3
  Cumulative zidovudine released in the first 72 h: 14.2%
[2]; [6]
  Cumulative zidovudine released at the final time point (28 days): 15.9%
  Cumulative zidovudine released within the first 30 min: 11.04%
[2]; [7]
  Weibull model shape factor β: 0.9550±0.11
  Weibull model α: 5.362±0.75
[2]; PBS pH 7.4, 37 °C, chemically conjugated vs physically encapsulated zidovudine
  Reduction of drug release in the first 72 h versus physical encapsulation: ~88%

## tetrabenzylamine-tetraglycine-L-lysine-O-phospho-L-tyrosine [(NPhe)4GGGGKY(p)-OH]
NCTC 929 cells [3]
  Live/Dead staining result at 500 μM: no observable cytotoxic effects on live cells

## (NPhe)4GGGGky(p)-OH [tetrabenzylamine-tetraglycine-D-lysine-O-phospho-D-tyrosine]
Alkaline phosphatase; 5% w/v
  G′ from frequency sweeps: ~2030 Pa
Alkaline phosphatase; 37 °C
  Strain at complete deformation (G′ and G″ intersect): ~192%
Alkaline phosphatase
  Strain at which the weaker network breaks: ~0.527%
  Strain at which the stronger second network or entanglement breaks: ~4.81%
NCTC 929 cells [3]
  Live/Dead staining result at 500 μM: demonstrated cytotoxicity

## (NPhe)4GGGGKY-OH [dephosphorylated peptoid-L-peptide hydrogel]
Alkaline phosphatase
  Strain at which the weaker network breaks: ~5.78%
  Strain at which the stronger second network or entanglement breaks: ~36.5%
[2]; [7]
  Weibull model shape factor β: 0.9550

## (NPhe)4GGGGK(AZT)Y(p)-OH [peptoid-L-peptide covalently attached to zidovudine via an ester linkage at the lysine position]
Alkaline phosphatase; [8]
  Mean loss modulus (G″) from frequency sweeps: 112.18
  Mean storage modulus (G′) from frequency sweeps: 856.11
Alkaline phosphatase; 5% w/v, frequency sweeps 1–100 rad s-1, strain 0.5%, 37 °C, from mean moduli
  Tan δ = G″/G′ from freq sweeps: 0.131
Alkaline phosphatase; 5% w/v, time sweep after addition of 3.98 U mL-1 alkaline phosphatase, n = 3
  Gelation time: G′ and G″ cross: ≤ 1 min
Alkaline phosphatase; 5% w/v, time sweep after addition of alkaline phosphatase
  Time for G′ and G″ to stabilize: 135 min
NCTC 929 cells [4]
  Effect on cell metabolic activity (MTS) at 500 μM: cell toxicity was once again demonstrated only after 72 h
